Results taken from ChEMBL document CHEMBL4507329, “Data for DCP probe BTZO-1” (2021).

How the values were obtained:
[1] = target: Non-receptor tyrosine-protein kinase TYK2 (Homo sapiens) (UniProt P29597); conditions: Compound concentration 1000.0 nM
[2] = tested on: Mast/stem cell growth factor receptor Kit (Homo sapiens), P10721 [V559D,V654A]; conditions: Compound concentration 1000.0 nM
[3] = target: cAMP-dependent protein kinase catalytic subunit alpha (Homo sapiens) (UniProt P17612); conditions: Compound concentration 1000.0 nM
[4] = target: Macrophage-stimulating protein receptor (Homo sapiens) (UniProt Q04912); conditions: Compound concentration 1000.0 nM
Chain of Macrophage-stimulating protein receptor (Homo sapiens) (Q04912 25-304 limits assumed): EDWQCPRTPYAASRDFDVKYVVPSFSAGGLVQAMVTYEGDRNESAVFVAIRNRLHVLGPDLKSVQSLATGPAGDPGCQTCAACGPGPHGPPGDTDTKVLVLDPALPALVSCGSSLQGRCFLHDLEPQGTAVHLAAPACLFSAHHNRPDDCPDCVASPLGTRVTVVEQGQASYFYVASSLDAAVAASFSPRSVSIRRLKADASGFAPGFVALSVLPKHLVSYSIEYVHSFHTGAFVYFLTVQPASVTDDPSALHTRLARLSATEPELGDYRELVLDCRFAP
Chain of Macrophage-stimulating protein receptor (Homo sapiens) (Q04912 310-1400 limits assumed): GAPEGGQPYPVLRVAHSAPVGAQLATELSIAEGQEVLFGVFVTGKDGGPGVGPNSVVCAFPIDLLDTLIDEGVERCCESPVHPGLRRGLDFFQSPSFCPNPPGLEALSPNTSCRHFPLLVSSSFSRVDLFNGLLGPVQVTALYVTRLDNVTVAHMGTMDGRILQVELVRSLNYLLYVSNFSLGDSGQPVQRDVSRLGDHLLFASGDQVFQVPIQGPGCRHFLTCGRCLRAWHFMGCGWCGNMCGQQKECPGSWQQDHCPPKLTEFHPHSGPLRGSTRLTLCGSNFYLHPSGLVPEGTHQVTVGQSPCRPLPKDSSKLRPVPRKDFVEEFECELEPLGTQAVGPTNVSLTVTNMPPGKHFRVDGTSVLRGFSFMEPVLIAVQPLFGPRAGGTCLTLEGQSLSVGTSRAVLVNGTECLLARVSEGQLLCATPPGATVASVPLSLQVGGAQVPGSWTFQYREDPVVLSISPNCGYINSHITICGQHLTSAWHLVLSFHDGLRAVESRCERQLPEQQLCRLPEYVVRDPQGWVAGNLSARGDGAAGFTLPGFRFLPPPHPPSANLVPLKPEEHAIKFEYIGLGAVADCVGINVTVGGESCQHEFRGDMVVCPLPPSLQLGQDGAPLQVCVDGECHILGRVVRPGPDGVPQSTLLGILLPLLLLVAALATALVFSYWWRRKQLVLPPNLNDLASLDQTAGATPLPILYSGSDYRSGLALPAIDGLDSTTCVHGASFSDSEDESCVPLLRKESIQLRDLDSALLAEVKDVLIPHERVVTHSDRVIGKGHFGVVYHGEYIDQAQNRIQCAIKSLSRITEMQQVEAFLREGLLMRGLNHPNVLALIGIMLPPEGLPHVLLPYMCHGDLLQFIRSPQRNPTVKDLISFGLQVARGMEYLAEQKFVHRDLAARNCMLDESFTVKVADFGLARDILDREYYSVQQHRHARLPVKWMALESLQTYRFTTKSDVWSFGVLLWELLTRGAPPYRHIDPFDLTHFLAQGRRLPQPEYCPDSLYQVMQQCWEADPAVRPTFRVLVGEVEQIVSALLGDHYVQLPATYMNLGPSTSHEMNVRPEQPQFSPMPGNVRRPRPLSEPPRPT

[5] = target: Serine/threonine-protein kinase VRK2 (Homo sapiens) (UniProt Q86Y07); conditions: Compound concentration 1000.0 nM
[6] = target: Inhibitor of nuclear factor kappa-B kinase subunit beta (Homo sapiens) (UniProt O14920); conditions: Compound concentration 1000.0 nM
[7] = tested on: Receptor-type tyrosine-protein kinase FLT3 (Homo sapiens), P36888 [R834Q]; conditions: Compound concentration 1000.0 nM
[8] = target: Ribosomal protein S6 kinase alpha-2 (Homo sapiens) (UniProt Q15349); conditions: Compound concentration 1000.0 nM
[9] = target: Cyclin-dependent kinase 5 (Homo sapiens) (UniProt Q00535); conditions: Compound concentration 1000.0 nM
[10] = target: Protein-tyrosine kinase 2-beta (Homo sapiens) (UniProt Q14289); conditions: Compound concentration 1000.0 nM
Chain of Protein-tyrosine kinase 2-beta (Homo sapiens) (Q14289 whole entry, looked up): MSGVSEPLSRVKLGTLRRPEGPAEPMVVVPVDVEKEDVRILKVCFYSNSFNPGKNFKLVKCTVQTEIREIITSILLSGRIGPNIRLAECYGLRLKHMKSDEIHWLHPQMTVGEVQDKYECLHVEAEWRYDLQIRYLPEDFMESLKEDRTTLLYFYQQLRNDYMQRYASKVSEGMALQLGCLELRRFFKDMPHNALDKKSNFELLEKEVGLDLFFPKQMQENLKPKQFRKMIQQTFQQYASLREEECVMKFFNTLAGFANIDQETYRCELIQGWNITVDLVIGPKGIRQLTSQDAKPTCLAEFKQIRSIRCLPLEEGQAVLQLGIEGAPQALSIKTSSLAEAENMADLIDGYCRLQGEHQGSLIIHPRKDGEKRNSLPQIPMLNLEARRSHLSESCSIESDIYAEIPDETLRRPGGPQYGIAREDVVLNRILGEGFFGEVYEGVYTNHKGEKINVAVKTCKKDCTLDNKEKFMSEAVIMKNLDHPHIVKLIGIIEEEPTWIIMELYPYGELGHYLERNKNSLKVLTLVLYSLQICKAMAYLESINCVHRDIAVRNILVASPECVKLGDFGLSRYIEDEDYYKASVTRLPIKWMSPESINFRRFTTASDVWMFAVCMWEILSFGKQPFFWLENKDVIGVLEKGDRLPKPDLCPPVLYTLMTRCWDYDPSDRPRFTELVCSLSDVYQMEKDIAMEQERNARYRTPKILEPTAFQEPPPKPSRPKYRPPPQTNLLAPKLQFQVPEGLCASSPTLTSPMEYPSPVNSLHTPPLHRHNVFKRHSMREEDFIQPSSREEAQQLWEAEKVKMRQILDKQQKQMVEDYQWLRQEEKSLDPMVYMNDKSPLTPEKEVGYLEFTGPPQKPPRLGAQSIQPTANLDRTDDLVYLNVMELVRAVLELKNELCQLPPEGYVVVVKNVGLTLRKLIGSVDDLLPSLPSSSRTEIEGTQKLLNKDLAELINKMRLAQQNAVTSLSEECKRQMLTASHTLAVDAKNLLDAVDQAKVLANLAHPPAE

[11] = target: Homeodomain-interacting protein kinase 2 (Homo sapiens) (UniProt Q9H2X6); conditions: Compound concentration 1000.0 nM
[12] = target: Serine/threonine-protein kinase N2 (Homo sapiens) (UniProt Q16513); conditions: Compound concentration 1000.0 nM
[13] = target: ALK tyrosine kinase receptor (Homo sapiens) (UniProt Q9UM73); conditions: Compound concentration 1000.0 nM
[14] = target: Angiopoietin-1 receptor (Homo sapiens) (UniProt Q02763); conditions: Compound concentration 1000.0 nM
[15] = target: Serine/threonine-protein kinase MRCK gamma (Homo sapiens) (UniProt Q6DT37); conditions: Compound concentration 1000.0 nM
[16] = target: Serine/threonine-protein kinase TAO2 (Homo sapiens) (UniProt Q9UL54); conditions: Compound concentration 1000.0 nM
[17] = target: Myosin light chain kinase, smooth muscle (Homo sapiens) (UniProt Q15746); conditions: Compound concentration 1000.0 nM
[18] = target: Mitogen-activated protein kinase kinase kinase 6 (Homo sapiens) (UniProt O95382); conditions: Compound concentration 1000.0 nM
[19] = target: Tyrosine-protein kinase ABL1 (Homo sapiens) (UniProt P00519); conditions: Compound concentration 1000.0 nM
[20] = target: G protein-coupled receptor kinase 4 (Homo sapiens) (UniProt P32298); conditions: Compound concentration 1000.0 nM
[21] = target: Serine/threonine-protein kinase WNK1 (Homo sapiens) (UniProt Q9H4A3); conditions: Compound concentration 1000.0 nM
[22] = target: Serine/threonine-protein kinase Nek7 (Homo sapiens) (UniProt Q8TDX7); conditions: Compound concentration 1000.0 nM
Chain of Serine/threonine-protein kinase Nek7 (Homo sapiens) (Q8TDX7 whole entry, looked up): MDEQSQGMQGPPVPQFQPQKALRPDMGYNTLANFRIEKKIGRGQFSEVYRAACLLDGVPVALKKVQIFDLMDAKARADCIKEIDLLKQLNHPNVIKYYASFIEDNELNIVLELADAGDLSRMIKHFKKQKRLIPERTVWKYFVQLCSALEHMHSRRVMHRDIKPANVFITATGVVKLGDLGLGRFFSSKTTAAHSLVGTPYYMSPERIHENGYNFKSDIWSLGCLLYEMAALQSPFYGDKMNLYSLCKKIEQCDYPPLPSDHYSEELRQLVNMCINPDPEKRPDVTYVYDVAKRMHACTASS

[23] = target: Serine/threonine-protein kinase MARK2 (Homo sapiens) (UniProt Q7KZI7); conditions: Compound concentration 1000.0 nM
[24] = target: Serine/threonine-protein kinase tousled-like 2 (Homo sapiens) (UniProt Q86UE8); conditions: Compound concentration 1000.0 nM
Chain of Serine/threonine-protein kinase tousled-like 2 (Homo sapiens) (Q86UE8 whole entry, looked up): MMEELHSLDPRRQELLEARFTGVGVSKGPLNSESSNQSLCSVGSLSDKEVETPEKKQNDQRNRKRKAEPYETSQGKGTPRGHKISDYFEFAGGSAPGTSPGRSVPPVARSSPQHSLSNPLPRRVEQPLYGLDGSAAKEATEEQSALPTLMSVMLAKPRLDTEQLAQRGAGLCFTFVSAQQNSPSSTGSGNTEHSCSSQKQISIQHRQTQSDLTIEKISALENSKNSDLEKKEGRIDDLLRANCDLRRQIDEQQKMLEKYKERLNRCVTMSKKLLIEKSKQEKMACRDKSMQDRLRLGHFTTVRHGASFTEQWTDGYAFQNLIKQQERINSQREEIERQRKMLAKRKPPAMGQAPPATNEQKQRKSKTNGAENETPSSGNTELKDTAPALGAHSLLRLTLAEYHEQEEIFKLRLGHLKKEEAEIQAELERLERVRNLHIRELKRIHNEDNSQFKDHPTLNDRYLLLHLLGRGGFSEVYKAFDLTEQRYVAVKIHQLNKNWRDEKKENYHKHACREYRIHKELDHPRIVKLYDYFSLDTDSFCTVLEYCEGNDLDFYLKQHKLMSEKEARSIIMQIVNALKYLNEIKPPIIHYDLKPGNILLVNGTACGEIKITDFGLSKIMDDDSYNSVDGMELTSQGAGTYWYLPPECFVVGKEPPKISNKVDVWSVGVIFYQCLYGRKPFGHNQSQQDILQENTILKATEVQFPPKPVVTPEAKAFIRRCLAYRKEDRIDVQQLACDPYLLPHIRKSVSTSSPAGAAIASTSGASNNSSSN

[25] = target: Cyclin-dependent kinase 15 (Homo sapiens) (UniProt Q96Q40); conditions: Compound concentration 1000.0 nM
[26] = target: 5-hydroxytryptamine receptor 3A (Homo sapiens) (UniProt P46098); conditions: Compound concentration 10.0 uM
Chain of 5-hydroxytryptamine receptor 3A (Homo sapiens) (P46098 whole entry): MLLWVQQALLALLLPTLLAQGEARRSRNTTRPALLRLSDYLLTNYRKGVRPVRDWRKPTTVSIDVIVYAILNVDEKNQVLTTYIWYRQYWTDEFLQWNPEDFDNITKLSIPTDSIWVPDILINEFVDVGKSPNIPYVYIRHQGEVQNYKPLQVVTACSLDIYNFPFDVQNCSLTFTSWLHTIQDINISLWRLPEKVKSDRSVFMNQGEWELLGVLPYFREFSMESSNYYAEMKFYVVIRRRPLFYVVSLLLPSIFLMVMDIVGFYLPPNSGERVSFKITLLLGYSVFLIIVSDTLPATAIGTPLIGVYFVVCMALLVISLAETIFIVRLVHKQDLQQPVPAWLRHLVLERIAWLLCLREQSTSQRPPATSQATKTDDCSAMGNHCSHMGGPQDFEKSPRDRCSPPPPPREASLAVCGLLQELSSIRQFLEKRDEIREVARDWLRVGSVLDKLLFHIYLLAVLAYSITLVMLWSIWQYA

[27] = target: Serine/threonine-protein kinase Sgk2 (Homo sapiens) (UniProt Q9HBY8); conditions: Compound concentration 1000.0 nM
[28] = target: Mitogen-activated protein kinase 6 (Homo sapiens) (UniProt Q16659); conditions: Compound concentration 1000.0 nM
[29] = target: 5'-AMP-activated protein kinase catalytic subunit alpha-2 (Homo sapiens) (UniProt P54646); conditions: Compound concentration 1000.0 nM
[30] = target: Receptor tyrosine-protein kinase erbB-2 (Homo sapiens) (UniProt P04626); conditions: Compound concentration 1000.0 nM
[31] = target: Fibroblast growth factor receptor 2 (Homo sapiens) (UniProt P21802); conditions: Compound concentration 1000.0 nM
[32] = target: Death-associated protein kinase 3 (Homo sapiens, UniProt O43293); conditions: Compound concentration 1000.0 nM
[33] = target: Alpha-2C adrenergic receptor (Homo sapiens) (UniProt P18825); conditions: Compound concentration 10.0 uM
Chain of Alpha-2C adrenergic receptor (Homo sapiens) (P18825 whole entry): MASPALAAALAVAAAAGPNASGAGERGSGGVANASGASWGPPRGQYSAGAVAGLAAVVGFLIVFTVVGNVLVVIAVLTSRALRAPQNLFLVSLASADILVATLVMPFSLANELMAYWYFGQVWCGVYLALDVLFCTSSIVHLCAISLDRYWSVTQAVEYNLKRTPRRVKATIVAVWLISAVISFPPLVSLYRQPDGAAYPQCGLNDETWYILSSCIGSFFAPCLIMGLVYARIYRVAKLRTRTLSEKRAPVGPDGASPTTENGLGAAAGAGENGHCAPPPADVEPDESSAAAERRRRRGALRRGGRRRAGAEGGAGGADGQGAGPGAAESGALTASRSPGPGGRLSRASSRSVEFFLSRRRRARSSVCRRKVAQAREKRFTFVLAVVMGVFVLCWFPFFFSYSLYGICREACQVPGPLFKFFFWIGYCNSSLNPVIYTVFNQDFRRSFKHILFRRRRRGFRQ

[34] = target: Beta-adrenergic receptor kinase 1 (Homo sapiens) (UniProt P25098); conditions: Compound concentration 1000.0 nM
[35] = target: Tyrosine-protein kinase Srms (Homo sapiens) (UniProt Q9H3Y6); conditions: Compound concentration 1000.0 nM
Chain of Tyrosine-protein kinase Srms (Homo sapiens) (Q9H3Y6 whole entry): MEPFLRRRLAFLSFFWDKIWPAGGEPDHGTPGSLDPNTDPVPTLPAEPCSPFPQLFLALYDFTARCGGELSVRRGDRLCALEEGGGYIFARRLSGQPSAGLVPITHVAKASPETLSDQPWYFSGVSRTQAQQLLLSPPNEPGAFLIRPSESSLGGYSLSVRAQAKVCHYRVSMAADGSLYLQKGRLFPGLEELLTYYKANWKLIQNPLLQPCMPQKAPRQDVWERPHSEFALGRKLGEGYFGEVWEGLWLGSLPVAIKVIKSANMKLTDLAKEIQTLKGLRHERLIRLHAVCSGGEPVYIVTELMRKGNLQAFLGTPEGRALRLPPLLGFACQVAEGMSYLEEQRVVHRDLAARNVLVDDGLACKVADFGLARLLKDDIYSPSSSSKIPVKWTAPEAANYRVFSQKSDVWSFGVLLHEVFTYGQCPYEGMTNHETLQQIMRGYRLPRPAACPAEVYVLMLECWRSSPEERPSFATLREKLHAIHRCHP

[36] = target: Cyclin-dependent kinase-like 1 (Homo sapiens) (UniProt Q00532); conditions: Compound concentration 1000.0 nM
[37] = target: Serine/threonine-protein kinase SIK2 (Homo sapiens) (UniProt Q9H0K1); conditions: Compound concentration 1000.0 nM
[38] = target: Hormonally up-regulated neu tumor-associated kinase (Homo sapiens) (UniProt P57058); conditions: Compound concentration 1000.0 nM
[39] = target: Cyclin-dependent kinase 3 (Homo sapiens) (UniProt Q00526); conditions: Compound concentration 1000.0 nM
[40] = target: Proto-oncogene tyrosine-protein kinase receptor Ret (Homo sapiens) (UniProt P07949); conditions: Compound concentration 1000.0 nM
[41] = target: Serine/threonine-protein kinase pim-3 (Homo sapiens) (UniProt Q86V86); conditions: Compound concentration 1000.0 nM
[42] = target: Sodium-dependent dopamine transporter (Homo sapiens) (UniProt Q01959); conditions: Compound concentration 10.0 uM
[43] = target: Tyrosine-protein kinase JAK2 (Homo sapiens) (UniProt O60674); conditions: Compound concentration 1000.0 nM
[44] = target: Mitogen-activated protein kinase kinase kinase 1 (Homo sapiens) (UniProt Q13233); conditions: Compound concentration 1000.0 nM
[45] = target: Phosphatidylinositol 4-kinase beta (Homo sapiens) (UniProt Q9UBF8); conditions: Compound concentration 1000.0 nM

Q: How did the residual activity [1] turn out when O=C1NC(c2ccccn2)Sc2ccccc21 (stereo not given) [BTZO-4] was run?
A: Its residual activity is 86%.

Q: And the residual activity [2]?
A: The residual activity was 87%.

Q: And the residual activity [3]?
A: Its residual activity is 81%.

Q: What about the residual activity [4] of the same molecule?
A: The residual activity was 100%.

Q: And the residual activity [5]?
A: The residual activity was 77%.

Q: And the residual activity [6]?
A: Its residual activity is 100%.

Q: What about the residual activity [7] of the same molecule?
A: The residual activity was 81%.

Q: What about the residual activity [8] of the same molecule?
A: The residual activity was 97%.

Q: What about the residual activity [9] of the same molecule?
A: Its residual activity is 86%.

Q: What about the residual activity [10] of the same molecule?
A: Its residual activity is 76%.

Q: What about the residual activity [11] of the same molecule?
A: Its residual activity is 80%.

Q: And the residual activity [12]?
A: Its residual activity is 100%.

Q: And the residual activity [13]?
A: Its residual activity is 89%.

Q: What about the residual activity [14] of the same molecule?
A: The residual activity was 100%.

Q: And the residual activity [15]?
A: Its residual activity is 80%.

Q: And the residual activity [16]?
A: The residual activity was 71%.

Q: And the residual activity [17]?
A: The residual activity was 77%.

Q: And the residual activity [18]?
A: The residual activity was 65%.

Q: And the residual activity [19]?
A: Its residual activity is 69%.

Q: And the residual activity [20]?
A: Its residual activity is 100%.

Q: What about the residual activity [21] of the same molecule?
A: The residual activity was 91%.

Q: What about the residual activity [22] of the same molecule?
A: Its residual activity is 68%.

Q: What about the residual activity [23] of the same molecule?
A: Its residual activity is 92%.

Q: And the residual activity [24]?
A: Its residual activity is 96%.

Q: What about the residual activity [25] of the same molecule?
A: The residual activity was 63%.

Q: And the inhibition [26]?
A: Its inhibition is -1.17%.

Q: What about the residual activity [27] of the same molecule?
A: The residual activity was 72%.

Q: And the residual activity [28]?
A: Its residual activity is 72%.

Q: What about the residual activity [29] of the same molecule?
A: The residual activity was 100%.

Q: And the residual activity [30]?
A: Its residual activity is 71%.

Q: And the residual activity [31]?
A: Its residual activity is 100%.

Q: And the residual activity [32]?
A: The residual activity was 0%.

Q: What about the inhibition [33] of the same molecule?
A: Its inhibition is -4.89%.

Q: And the residual activity [34]?
A: Its residual activity is 58%.

Q: And the residual activity [35]?
A: Its residual activity is 84%.

Q: What about the residual activity [36] of the same molecule?
A: The residual activity was 75%.

Q: And the residual activity [37]?
A: The residual activity was 96%.

Q: What about the residual activity [38] of the same molecule?
A: Its residual activity is 80%.

Q: And the residual activity [39]?
A: Its residual activity is 100%.

Q: What about the residual activity [40] of the same molecule?
A: The residual activity was 88%.

Q: What about the residual activity [41] of the same molecule?
A: Its residual activity is 100%.

Q: And the inhibition [42]?
A: Its inhibition is -2.05%.

Q: What about the residual activity [43] of the same molecule?
A: The residual activity was 84%.

Q: And the residual activity [44]?
A: The residual activity was 55%.

Q: What about the residual activity [45] of the same molecule?
A: The residual activity was 79%.

Q: With O=c1nc(-c2ccccn2)sc2ccccc12 [BTZO-1] as the molecule, how does the residual activity [1] read?
A: Its residual activity is 98%.

Q: What about the residual activity [2] of the same molecule?
A: Its residual activity is 100%.

Q: And the residual activity [3]?
A: The residual activity was 91%.

Q: And the residual activity [4]?
A: Its residual activity is 100%.

Q: And the residual activity [5]?
A: Its residual activity is 74%.

Q: What about the residual activity [6] of the same molecule?
A: The residual activity was 100%.

Q: And the residual activity [7]?
A: The residual activity was 100%.

Q: What about the residual activity [8] of the same molecule?
A: The residual activity was 100%.

Q: What about the residual activity [9] of the same molecule?
A: Its residual activity is 85%.

Q: And the residual activity [10]?
A: The residual activity was 100%.

Q: And the residual activity [11]?
A: Its residual activity is 76%.

Q: And the residual activity [12]?
A: Its residual activity is 100%.

Q: And the residual activity [13]?
A: Its residual activity is 84%.

Q: What about the residual activity [14] of the same molecule?
A: Its residual activity is 99%.

Q: And the residual activity [15]?
A: The residual activity was 80%.

Q: And the residual activity [16]?
A: The residual activity was 73%.

Q: What about the residual activity [17] of the same molecule?
A: The residual activity was 67%.

Q: What about the residual activity [18] of the same molecule?
A: The residual activity was 71%.

Q: And the residual activity [19]?
A: The residual activity was 93%.

Q: And the residual activity [20]?
A: Its residual activity is 100%.

Q: What about the residual activity [21] of the same molecule?
A: The residual activity was 100%.

Q: What about the residual activity [22] of the same molecule?
A: The residual activity was 75%.

Q: And the residual activity [23]?
A: The residual activity was 78%.

Q: What about the residual activity [24] of the same molecule?
A: Its residual activity is 96%.

Q: What about the residual activity [25] of the same molecule?
A: Its residual activity is 75%.

Q: What about the inhibition [26] of the same molecule?
A: The inhibition was 17.2%.

Q: And the residual activity [27]?
A: Its residual activity is 85%.

Q: What about the residual activity [28] of the same molecule?
A: The residual activity was 73%.

Q: And the residual activity [29]?
A: Its residual activity is 100%.

Q: What about the residual activity [30] of the same molecule?
A: The residual activity was 65%.

Q: What about the residual activity [31] of the same molecule?
A: The residual activity was 100%.

Q: What about the residual activity [32] of the same molecule?
A: The residual activity was 91%.

Q: And the inhibition [33]?
A: Its inhibition is -9.43%.

Q: What about the residual activity [34] of the same molecule?
A: Its residual activity is 65%.

Q: And the residual activity [35]?
A: Its residual activity is 87%.

Q: What about the residual activity [36] of the same molecule?
A: The residual activity was 87%.

Q: And the residual activity [37]?
A: Its residual activity is 86%.

Q: And the residual activity [38]?
A: Its residual activity is 81%.

Q: What about the residual activity [39] of the same molecule?
A: The residual activity was 99%.

Q: What about the residual activity [40] of the same molecule?
A: The residual activity was 89%.

Q: And the residual activity [41]?
A: The residual activity was 100%.

Q: What about the inhibition [42] of the same molecule?
A: Its inhibition is -3.83%.

Q: And the residual activity [43]?
A: Its residual activity is 100%.

Q: What about the residual activity [44] of the same molecule?
A: The residual activity was 65%.

Q: And the residual activity [45]?
A: Its residual activity is 71%.
